Laboratory results as given in patent US20240002365A1, “PYRIDAZINE AND 1,2,4-TRIAZINE DERIVATIVES AS FGFR KINASE INHIBITORS” (BETA PHARMA, INC., priority 2020, published 2024).

Tests used:
FGFR1 [1] = molecular target: T1, FGFR1 (Homo sapiens (Human), UniProt P11362); test: RBC HotSpot Kinase Assay (33P-ATP filter-binding); format: biochemical; settings: 10 μM ATP
FGFR2 = FGFR2 (Homo sapiens (Human), UniProt P21802); test: RBC HotSpot Kinase Assay (33P-ATP filter-binding); format: biochemical; settings: 10 μM ATP
Method: (§1) Biochemical Assay. […] The reaction buffer was 20 mM HEPES (pH 7.5), 10 mM MgCl2, 1 mM EGTA, 0.02% Brij35, 0.02 mg/mL BSA, 0.1 mM Na3VO4, 2 mM DTT, 1% DMSO. The required cofactors are added individually to each kinase reaction. […] The substrate was Poly (Glu, Tyr) sodium salt and the concentration was 0.2 mg/mL (Sigma; cat. #P7244) where the Glu:Tyr (4:1) molecular weight was 5,000-20,000. […] Reactions were carried out at 10 μM ATP. The serial dilution was conducted by Integra Viaflo Assist in DMSO. The reaction procedure was conducted as follows: • 1) Prepare substrate in freshly prepared Reaction Buffer. • 2) MnCl2 (2 mM) was added as a co-factor listed as above. • 3) Deliver kinase into the substrate solution and gently mix. • 4) Deliver compounds in 100% DMSO into the kinase reaction mixture by Acoustic technology (Echo550; nanoliter range), incubate for 20 min at RT. • 5) Deliver 33P-ATP (specific activity 10 μCi/μL) into the reaction mixture to initiate the reaction. • 6) Incubate for 2 hours at RT. • 7) Detect radioactivity by the filter-binding method. • 8) Kinase activity data was expressed as the percent remaining kinase activity in the test sample compared to vehicle (DMSO) reactions.

FGFR4 = FGFR4 (Homo sapiens (Human), UniProt P22455); test: RBC HotSpot Kinase Assay (33P-ATP filter-binding); format: biochemical; settings: 10 μM ATP
Method: as §1

FGFR3 = FGFR3 (Homo sapiens (Human), UniProt P22607); test: RBC HotSpot Kinase Assay (33P-ATP filter-binding); format: biochemical; settings: 10 μM ATP
Method: as §1

FGFR1 [2] = molecular target: T1, FGFR1; test: RBC NanoBRET Assay for Target Engagement in HEK293 cells transfected with FGFR1-NanoLuc Fusion vector; format: cell-based; settings: 1 hour, tracer K5 1 μM
Method: Cellular Assay. The RBC NanoBRET Assay for Target Engagement was performed by Reaction Biology Corporation, 1 Great Valley Parkway, Suite 2 Malvern, PA 19355, USA. The assay was conducted in HEK293 cells transiently transfected with FGFR1-NanoLuc Fusion vector. The HEK293 cells (ATCC) were transfected with 1 μg of FGFR1-NanoLuc Fusion vector in 384-well format and the transfected cells were subsequently treated with the test compounds (starting at 10 μM, 10-dose with 3-fold dilution) for 1 hour using CTx-0294885 as the reference standard and K5 (1 μM) was used as the tracer. FGFR1 target engagement was measured and the curve fits were performed only when % NanoBret signal at the highest concentration of compounds was less than 55%.

T1 sequence (P11362 22-822): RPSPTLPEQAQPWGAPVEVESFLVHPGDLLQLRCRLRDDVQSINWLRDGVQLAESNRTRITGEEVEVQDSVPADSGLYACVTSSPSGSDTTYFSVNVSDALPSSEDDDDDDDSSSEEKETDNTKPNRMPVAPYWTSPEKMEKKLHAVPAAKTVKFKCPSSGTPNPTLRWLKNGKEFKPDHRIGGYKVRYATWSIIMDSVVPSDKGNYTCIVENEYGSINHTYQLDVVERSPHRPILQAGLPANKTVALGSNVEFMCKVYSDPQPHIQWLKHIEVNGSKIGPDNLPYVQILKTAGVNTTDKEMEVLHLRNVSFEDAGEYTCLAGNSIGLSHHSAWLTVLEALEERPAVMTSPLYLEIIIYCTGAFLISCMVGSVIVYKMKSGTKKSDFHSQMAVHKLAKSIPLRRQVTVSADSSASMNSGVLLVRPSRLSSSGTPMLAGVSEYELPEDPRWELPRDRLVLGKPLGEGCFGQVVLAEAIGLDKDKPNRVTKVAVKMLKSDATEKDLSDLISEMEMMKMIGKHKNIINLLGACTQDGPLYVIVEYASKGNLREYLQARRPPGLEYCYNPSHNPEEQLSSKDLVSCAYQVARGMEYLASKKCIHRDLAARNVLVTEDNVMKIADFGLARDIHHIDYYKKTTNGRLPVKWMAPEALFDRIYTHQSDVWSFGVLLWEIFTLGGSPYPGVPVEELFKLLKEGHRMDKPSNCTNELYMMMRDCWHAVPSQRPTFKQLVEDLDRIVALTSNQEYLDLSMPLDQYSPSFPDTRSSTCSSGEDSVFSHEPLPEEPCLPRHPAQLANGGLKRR
Chain of FGFR4 (P22455 22-802): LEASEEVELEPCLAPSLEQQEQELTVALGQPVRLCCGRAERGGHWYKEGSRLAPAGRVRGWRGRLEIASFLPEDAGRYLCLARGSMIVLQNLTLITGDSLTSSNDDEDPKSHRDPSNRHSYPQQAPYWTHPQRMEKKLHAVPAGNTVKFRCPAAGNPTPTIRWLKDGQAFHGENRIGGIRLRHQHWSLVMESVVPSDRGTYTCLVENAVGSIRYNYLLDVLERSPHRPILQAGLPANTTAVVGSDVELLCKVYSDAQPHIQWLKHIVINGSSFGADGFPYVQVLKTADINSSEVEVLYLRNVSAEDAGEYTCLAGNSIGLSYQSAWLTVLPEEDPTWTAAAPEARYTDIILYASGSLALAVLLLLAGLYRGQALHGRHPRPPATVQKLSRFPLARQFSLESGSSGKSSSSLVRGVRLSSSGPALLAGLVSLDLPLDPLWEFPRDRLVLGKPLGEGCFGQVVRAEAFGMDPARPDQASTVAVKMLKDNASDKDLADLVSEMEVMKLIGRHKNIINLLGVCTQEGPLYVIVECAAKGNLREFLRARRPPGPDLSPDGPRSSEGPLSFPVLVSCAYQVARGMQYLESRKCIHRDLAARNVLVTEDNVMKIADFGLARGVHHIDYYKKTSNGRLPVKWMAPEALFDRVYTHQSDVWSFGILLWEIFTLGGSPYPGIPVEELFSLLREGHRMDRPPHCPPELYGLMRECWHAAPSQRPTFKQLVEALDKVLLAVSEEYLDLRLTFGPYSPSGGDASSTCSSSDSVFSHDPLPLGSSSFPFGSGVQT
Chain of FGFR2 (P21802 22-821): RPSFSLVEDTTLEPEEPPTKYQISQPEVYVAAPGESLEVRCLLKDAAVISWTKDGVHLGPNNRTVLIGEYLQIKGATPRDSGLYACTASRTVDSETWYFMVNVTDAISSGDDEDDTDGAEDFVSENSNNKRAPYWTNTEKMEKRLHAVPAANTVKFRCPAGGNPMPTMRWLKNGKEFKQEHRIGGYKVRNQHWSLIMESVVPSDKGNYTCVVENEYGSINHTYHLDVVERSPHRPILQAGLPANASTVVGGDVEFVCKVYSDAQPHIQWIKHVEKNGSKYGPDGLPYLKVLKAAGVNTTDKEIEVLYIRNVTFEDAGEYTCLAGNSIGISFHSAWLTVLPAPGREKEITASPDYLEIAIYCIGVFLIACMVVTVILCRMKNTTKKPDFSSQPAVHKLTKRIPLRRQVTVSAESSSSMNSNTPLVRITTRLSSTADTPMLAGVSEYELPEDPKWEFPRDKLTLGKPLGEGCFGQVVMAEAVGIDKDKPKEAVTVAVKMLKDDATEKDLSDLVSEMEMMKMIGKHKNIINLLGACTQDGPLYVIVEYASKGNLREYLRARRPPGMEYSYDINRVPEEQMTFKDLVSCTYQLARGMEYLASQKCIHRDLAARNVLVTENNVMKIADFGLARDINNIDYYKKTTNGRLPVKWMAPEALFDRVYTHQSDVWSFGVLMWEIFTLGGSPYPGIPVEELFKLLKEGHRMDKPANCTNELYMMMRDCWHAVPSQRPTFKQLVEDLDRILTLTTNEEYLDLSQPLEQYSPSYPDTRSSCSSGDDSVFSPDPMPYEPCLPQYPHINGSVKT
Chain of FGFR3 (P22607 23-806): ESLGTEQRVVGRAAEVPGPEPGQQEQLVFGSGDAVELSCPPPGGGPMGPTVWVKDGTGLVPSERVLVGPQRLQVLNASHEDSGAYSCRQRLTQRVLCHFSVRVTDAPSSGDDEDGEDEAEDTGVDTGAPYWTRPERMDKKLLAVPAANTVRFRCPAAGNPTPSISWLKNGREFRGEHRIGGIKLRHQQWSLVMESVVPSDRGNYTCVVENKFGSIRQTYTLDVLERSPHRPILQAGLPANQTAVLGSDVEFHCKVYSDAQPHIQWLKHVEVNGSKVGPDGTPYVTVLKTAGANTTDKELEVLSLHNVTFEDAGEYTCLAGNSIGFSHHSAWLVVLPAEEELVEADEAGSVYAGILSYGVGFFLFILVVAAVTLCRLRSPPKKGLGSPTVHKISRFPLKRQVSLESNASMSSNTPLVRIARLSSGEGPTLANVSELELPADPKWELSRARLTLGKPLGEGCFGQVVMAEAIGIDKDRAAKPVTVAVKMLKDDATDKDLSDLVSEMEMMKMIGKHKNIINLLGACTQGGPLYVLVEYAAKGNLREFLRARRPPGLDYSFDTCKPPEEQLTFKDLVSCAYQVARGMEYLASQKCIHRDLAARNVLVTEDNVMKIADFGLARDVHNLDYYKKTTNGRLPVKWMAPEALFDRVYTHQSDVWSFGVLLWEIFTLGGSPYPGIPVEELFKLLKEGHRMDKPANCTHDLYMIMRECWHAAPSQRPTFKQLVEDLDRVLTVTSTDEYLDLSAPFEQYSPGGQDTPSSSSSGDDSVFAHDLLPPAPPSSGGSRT

- IC50 (FGFR1 [1]): 7.3 nM
- IC50 (FGFR2): 4.3 nM
- IC50 (FGFR4): 11 nM
- IC50 (FGFR3): 7.6 nM
- IC50 (FGFR1 [2]): 9.5 nM
SMILES: COc1cc(OC)cc(N(CCNC(C)C)c2ccc3nnc(-c4cnn(C)c4)cc3c2)c1 [Example 1, N^1-(3,5-Dimethoxyphenyl)-N^2-isopropyl-N^1-(3-(1-methyl-1H-pyrazol-4-yl)cinnolin-6-yl)ethane-1,2-diamine]
